Read-outs that look alike come from different tables or passages of the source.
What was measured:
Type in all cases: biochemical
FGFR3 = target: T1, FGFR3 (Homo sapiens, UniProt P22607); assay: FGFR3 kinase activity inhibition assay (LanthaScreen TR-FRET); conditions: for Selectivity (X) FGFR1/FGFR3: ratio of IC50 FGFR1/FGFR3, selectivity towards FGFR3; for Selectivity (X) FGFR2/FGFR3: ratio of IC50 FGFR2/FGFR3, selectivity towards FGFR3; for Selectivity (X) FGFR4/FGFR3: ratio of IC50 FGFR4/FGFR3, selectivity towards FGFR3
T1 construct: FGFR3's cytoplasmic domain [436-806 (terminal) amino acids]; purchased Carna 08-135
T1 sequence (P22607 436-806): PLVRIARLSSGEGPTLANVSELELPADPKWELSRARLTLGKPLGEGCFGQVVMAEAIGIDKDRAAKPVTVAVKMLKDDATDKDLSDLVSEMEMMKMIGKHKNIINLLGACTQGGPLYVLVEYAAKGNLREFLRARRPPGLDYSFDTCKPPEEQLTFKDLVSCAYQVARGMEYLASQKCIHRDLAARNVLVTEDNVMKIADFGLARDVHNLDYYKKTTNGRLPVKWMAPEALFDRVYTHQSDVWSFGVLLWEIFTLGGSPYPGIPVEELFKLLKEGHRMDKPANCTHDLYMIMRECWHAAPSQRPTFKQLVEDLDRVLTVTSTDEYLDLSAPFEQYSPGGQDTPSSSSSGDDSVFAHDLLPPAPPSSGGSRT
Outline: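 Read-out is TR-FRET, with the 520 nm/495 nm emission ratio normalised to DMSO (max) and enzyme-free (min) controls. Enzyme was the FGFR3 cytoplasmic domain, residues 436-806. EDTA (10 mM) stopped the reaction, followed by 60 min at 22 °C before reading.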

FGFR1 = target: T2, FGFR1 (Homo sapiens, UniProt P11362); assay: FGFR1 kinase activity inhibition assay (LanthaScreen TR-FRET)
T2 construct: cytoplasmic domain [398-822 (terminal) amino acids]; purchased Carna 08-133
T2 sequence (P11362 398-822): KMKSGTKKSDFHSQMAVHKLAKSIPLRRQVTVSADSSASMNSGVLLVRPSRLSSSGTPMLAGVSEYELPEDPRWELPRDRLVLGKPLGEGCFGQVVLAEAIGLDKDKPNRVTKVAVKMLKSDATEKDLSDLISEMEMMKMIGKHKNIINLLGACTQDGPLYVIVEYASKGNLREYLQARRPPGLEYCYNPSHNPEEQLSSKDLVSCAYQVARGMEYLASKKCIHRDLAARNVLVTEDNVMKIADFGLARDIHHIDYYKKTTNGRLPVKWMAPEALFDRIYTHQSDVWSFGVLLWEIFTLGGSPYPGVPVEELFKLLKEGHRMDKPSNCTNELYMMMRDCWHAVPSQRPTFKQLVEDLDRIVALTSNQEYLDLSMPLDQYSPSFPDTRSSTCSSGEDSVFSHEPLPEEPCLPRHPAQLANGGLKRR
Outline: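 Emission ratio 520 nm/495 nm by TR-FRET after stopping reaction with 10 mM EDTA and 60 min incubation at 22°C. Inhibition normalized between no-enzyme (min) and DMSO (max) controls, then fitted to a four-parameter curve (Top, Bottom, HillSlope).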

FGFR2 = target: T3, FGFR2 (Homo sapiens, UniProt P21802); assay: FGFR2 kinase activity inhibition assay (LanthaScreen TR-FRET)
T3 construct: FGFR2's cytoplasmic domain [399-821 (terminal) amino acids]; purchased Carna 08-134
T3 sequence (P21802 399-821): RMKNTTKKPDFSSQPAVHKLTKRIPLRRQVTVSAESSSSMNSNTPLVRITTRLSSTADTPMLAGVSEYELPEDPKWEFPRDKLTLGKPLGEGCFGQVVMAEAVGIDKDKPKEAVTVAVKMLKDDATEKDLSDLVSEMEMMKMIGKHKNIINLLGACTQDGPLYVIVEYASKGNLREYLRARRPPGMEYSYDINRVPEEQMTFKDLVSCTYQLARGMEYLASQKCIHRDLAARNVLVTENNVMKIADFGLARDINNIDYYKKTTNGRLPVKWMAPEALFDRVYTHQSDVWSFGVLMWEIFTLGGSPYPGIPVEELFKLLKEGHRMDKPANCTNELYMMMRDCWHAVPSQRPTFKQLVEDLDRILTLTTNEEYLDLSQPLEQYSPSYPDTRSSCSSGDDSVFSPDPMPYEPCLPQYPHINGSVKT
Description: (§1) FGFR1 kinase activity was measured using Invitrogen LanthaScreen™ assay technology, which utilized fluorescently-labeled peptides and terbium-labeled antibodies to directly measure an amount of the phosphorylated substrate through time-resolved fluorescence energy transfer (TR-FRET). • ① The test compounds were diluted: starting from a concentration of 1 µM, with a buffer solution in a three-fold serial dilution, the buffer solution being composed of 50 mM HEPES, 10 mM MgCl2, 0.01% TritonX-100, 0.01% BSA, 4 mM DTT (pH 7.5), and 1% DMSO; • ② 0.01 nM recombinant human GST fusion protein FGFR1's cytoplasmic domain [398-822 (terminal) amino acids] (Carna: 08-133) was formulated into a 2 × solution, mixed well with the test compounds, and incubated at 23°C for 10 minutes; • ③ 28 nM Fluorescein-Poly GT peptide substrate (Life Technologies: PV3611) and 28 µM ATP were formulated into a 2 × solution, mixed well with the test compounds and enzyme in ②, and incubated at 23°C for 30 minutes; • ④ 10 µL of 2nM Tb-PY20 antibody (Life Technologies: PV3552) and 10 mM EDTA were added to quench the kinase reaction, and incubated at 22°C for 60 minutes. • ⑤ The reaction was measured using a PerkinElmer EnVision multimode plate reader through TR-FRET dual wavelength detection. • 1. The RFU values were copied from the Envision program. • 2. The ratio of RFU 520nm/RFU 495nm was calculated. • 3. The value of the ratio was converted to a percentage inhibition value. % Inhibition = (max-data)/(max-min) × 100 [formula]
(§2) "Min" represents the ratio of the control without enzyme, "max" represents the ratio of the DMSO control, and "data" represents the ratio of the compounds in wells with different concentrations.
(§3) "Top" refers to the maximum response, "Bottom" refers to the minimum response, and "HillSlope" refers to the slope of the curve.
According to the same method as that in the FGFR1 kinase activity inhibition assay, the inhibitory activities against FGFR2, FGFR3 and FGFR4 were tested using FGFR2's cytoplasmic domain [399-821 (terminal) amino acids] (Carna: 08-134), FGFR3's cytoplasmic domain [436-806 (terminal) amino acids] (Carna: 08-135) and FGFR4's cytoplasmic domain [460-802 (terminal) amino acids] (Carna: 08-136), respectively. […]

FGFR4 = target: T4, FGFR4 (Homo sapiens, UniProt P22455); assay: FGFR4 kinase activity inhibition assay (LanthaScreen TR-FRET)
T4 construct: FGFR4's cytoplasmic domain [460-802 (terminal) amino acids]; purchased Carna 08-136
T4 sequence (P22455 460-802): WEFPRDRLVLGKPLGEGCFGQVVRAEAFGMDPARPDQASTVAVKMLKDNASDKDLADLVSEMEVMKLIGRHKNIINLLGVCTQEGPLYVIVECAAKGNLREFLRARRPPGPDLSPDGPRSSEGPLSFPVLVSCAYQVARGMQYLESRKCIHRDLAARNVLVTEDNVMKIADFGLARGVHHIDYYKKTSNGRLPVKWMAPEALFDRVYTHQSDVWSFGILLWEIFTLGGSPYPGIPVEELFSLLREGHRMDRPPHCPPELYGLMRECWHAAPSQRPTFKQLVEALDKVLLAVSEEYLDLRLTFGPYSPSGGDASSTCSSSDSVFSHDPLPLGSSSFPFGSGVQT
Description: as §1, §2, §3
According to the same method as that in the FGFR1 kinase activity inhibition assay, the inhibitory activities against FGFR2, FGFR3 and FGFR4 were tested using FGFR2's cytoplasmic domain [399-821 (terminal) amino acids] (Carna: 08-134), FGFR3's cytoplasmic domain [436-806 (terminal) amino acids] (Carna: 08-135) and FGFR4's cytoplasmic domain [460-802 (terminal) amino acids] (Carna: 08-136), respectively. Table 1 reports the kinase activity inhibition results and selectivity towards FGFR3 of each compound.

[1] = FGFR3 kinase, TR-FRET, read-out: IC50 (nM) FGFR3
[2] = FGFR1 kinase, TR-FRET, read-out: IC50 (nM) FGFR1
[3] = FGFR2 kinase, TR-FRET, read-out: IC50 (nM) FGFR2
[4] = FGFR4 kinase, TR-FRET, read-out: IC50 (nM) FGFR4

IC50 (FGFR3; [1]) [nM]	Selectivity (X) FGFR1/FGFR3 (FGFR3)	Selectivity (X) FGFR2/FGFR3 (FGFR3)	Selectivity (X) FGFR4/FGFR3 (FGFR3)	IC50 (FGFR1; [2]) [nM]	IC50 (FGFR2; [3]) [nM]	IC50 (FGFR4; [4]) [nM]	Compound	IC50 (FGFR3) [nM]	IC50 (FGFR1) [nM]	IC50 (FGFR2) [nM]	IC50 (FGFR4) [nM]
1 to 10	A (A represents 1 ≤ multiple X<20)	A (A represents 1 ≤ multiple X<20)	B (B represents 20 ≤ multiple X<50)	10 to 100	1 to 10	10 to 100	C[C@@H](Oc1ccc2[nH]nc(-c3cnn(CCn4ccnc4)c3)c2n1)c1c(Cl)cncc1Cl [Example 60, (R)-3-(1-(2-(1H-imidazol-1-yl)ethyl)-1H-pyrazol-4-yl)-5-(1-(3,5-dichloropyridin-4-yl)ethoxy)-1H-pyrazolo[4,3-b]pyridine]				
1 to 10	A (A represents 1 ≤ multiple X<20)	A (A represents 1 ≤ multiple X<20)	B (B represents 20 ≤ multiple X<50)	10 to 100	1 to 10	10 to 100	C[C@@H](Oc1ccc2[nH]nc(-c3cnn(CCc4cccnc4)c3)c2n1)c1c(Cl)cncc1Cl [Example 61, (R)-5-(1-(3,5-dichloropyridin-4-yl)ethoxy)-3-(1-(2-(pyridin-3-yl)ethyl)-1H-pyrazol-4-yl)-1H-pyrazolo[4,3-b]pyridine]				
< 1	A (A represents 1 ≤ multiple X<20)	A (A represents 1 ≤ multiple X<20)	D (D represents 100 ≤ multiple X)	1 to 10	1 to 10	10 to 100	C[C@@H](Oc1ccc2[nH]nc(-c3cnn(CCN4CCC5(CCNC5=O)CC4)c3)c2n1)c1c(Cl)cncc1Cl [Example 62, (R)-8-(2-(4-(5-(1-(3,5-dichloropyridin-4-yl)ethoxy)-1H-pyrazolo[4,3-b]pyridin-3-yl)-1H-pyrazol-1-yl)ethyl)-2,8-diazaspiro[4.5]dec an-1-one]				
10 to 100	C (C represents 50 ≤ multiple X<100)	B (B represents 20 ≤ multiple X<50)	D (D represents 100 ≤ multiple X)	> 100	> 100	> 100	CNCCNC(=O)c1ccc2[nH]nc(-c3cn(C)nn3)c2c1 [Example 74, 3-(1-methyl-1H-1,2,3-triazol-4-yl)-N-(2-(methylamino)ethyl)-1H-indazole-5-carboxamide]				
10 to 100	D (D represents 100 ≤ multiple X)	D (D represents 100 ≤ multiple X)	D (D represents 100 ≤ multiple X)	> 100	> 100	> 100	Cc1c[nH]c(-c2n[nH]c3ccc(C(=O)NCCN(C)C)cc23)n1 [Example 80, N-(2-(dimethylamino)ethyl)-3-(4-methyl-1H-imidazol-2-yl)-1H-indazole-5-carboxamide]				
1 to 10	B (B represents 20 ≤ multiple X<50)	A (A represents 1 ≤ multiple X<20)	B (B represents 20 ≤ multiple X<50)	> 100	10 to 100	> 100	CC(C)c1ccc2ncccc2c1C(C)Oc1ccc2[nH]nc(-c3cnn(C)c3)c2c1 (stereo not shown) [Example 107, 6-isopropyl-5-(1-((3-(1-methyl-1H-pyrazol-4-yl)-1H-indazol-5-yl)oxy)ethyl)qu inoline]				

Compound	IC50 (FGFR3; [1]) [nM]	Selectivity (X) FGFR1/FGFR3 (FGFR3)	Selectivity (X) FGFR2/FGFR3 (FGFR3)	Selectivity (X) FGFR4/FGFR3 (FGFR3)	IC50 (FGFR1; [2]) [nM]	IC50 (FGFR2; [3]) [nM]	IC50 (FGFR4; [4]) [nM]	IC50 (FGFR3) [nM]	IC50 (FGFR1) [nM]	IC50 (FGFR2) [nM]	IC50 (FGFR4) [nM]
CC(Oc1ccc2[nH]nc(-c3cnn(C)c3)c2c1)c1cccc2ncc(Cl)cc12 (stereo not shown) [Example 94, 3-chloro-5-(1-((3-(1-methyl-1H-pyrazol-4-yl)-1H-indazol-5-yl)oxy)ethyl)quin oline]		C (C represents 50 ≤ multiple X<100)	A (A represents 1 ≤ multiple X<20)	B (B represents 20 ≤ multiple X<50)				10 to 100	> 100	10 to 100	> 100

— patent publication EP4644383A1 (Jiangsu Yahong Meditech Co., Ltd., priority 2022, dated 2024)
